Measured values taken from ChEMBL document CHEMBL4402613, “Targeting ALK2: An Open Science Approach to Developing Therapeutics for the Treatment of Diffuse Intrinsic Pontine Glioma” (J Med Chem, 2020).
Active and inactive are the calls of the source. The rule behind the calls is not given here.

Assays:
[1] = target: Misshapen-like kinase 1 (Homo sapiens) (UniProt Q8N4C8); assay: Inhibition of MINK (unknown origin) at 1 uM
[2] = target: T1, Non-receptor tyrosine-protein kinase TNK1 (Homo sapiens) (UniProt Q13470); assay: Inhibition of TNK1 (unknown origin) at 1 uM
T1 sequence (whole entry): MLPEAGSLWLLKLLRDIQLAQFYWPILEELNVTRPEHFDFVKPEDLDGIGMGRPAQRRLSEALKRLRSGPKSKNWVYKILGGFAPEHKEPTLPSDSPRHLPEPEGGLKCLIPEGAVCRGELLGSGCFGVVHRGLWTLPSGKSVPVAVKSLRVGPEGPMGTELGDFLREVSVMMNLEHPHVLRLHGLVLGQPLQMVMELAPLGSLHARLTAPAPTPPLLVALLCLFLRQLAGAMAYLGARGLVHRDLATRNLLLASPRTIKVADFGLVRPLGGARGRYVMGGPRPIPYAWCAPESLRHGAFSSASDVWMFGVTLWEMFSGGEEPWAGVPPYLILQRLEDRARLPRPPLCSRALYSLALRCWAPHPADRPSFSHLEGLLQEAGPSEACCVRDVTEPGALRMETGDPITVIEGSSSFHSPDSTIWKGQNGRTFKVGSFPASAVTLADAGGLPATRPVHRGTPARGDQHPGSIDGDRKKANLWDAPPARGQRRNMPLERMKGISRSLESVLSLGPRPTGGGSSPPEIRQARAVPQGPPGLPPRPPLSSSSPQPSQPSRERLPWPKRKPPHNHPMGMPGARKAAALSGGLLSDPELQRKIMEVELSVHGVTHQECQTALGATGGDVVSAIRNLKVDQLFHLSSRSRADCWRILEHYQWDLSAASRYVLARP

TGF-beta receptor type-1 [3] = target: T2, TGF-beta receptor type-1 (Homo sapiens, UniProt P36897); format: cell-based, HEK293
T2 sequence (P36897 whole entry): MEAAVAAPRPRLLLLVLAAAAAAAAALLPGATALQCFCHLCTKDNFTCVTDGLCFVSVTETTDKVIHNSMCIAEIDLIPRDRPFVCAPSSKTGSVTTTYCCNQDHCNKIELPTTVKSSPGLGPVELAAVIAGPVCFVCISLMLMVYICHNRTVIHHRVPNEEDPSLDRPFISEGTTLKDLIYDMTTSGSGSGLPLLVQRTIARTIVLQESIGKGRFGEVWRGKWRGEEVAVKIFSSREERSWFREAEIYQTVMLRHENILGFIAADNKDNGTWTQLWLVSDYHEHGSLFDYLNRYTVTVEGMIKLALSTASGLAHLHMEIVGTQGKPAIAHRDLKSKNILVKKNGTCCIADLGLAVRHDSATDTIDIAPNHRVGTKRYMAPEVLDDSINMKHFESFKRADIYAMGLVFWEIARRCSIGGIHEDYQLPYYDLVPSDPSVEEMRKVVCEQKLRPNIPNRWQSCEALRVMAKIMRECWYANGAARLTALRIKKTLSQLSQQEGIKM
Description: Inhibition of ALK5 (unknown origin) expressed in HEK293 cells transfected with CAGA-luciferase and Renilla luciferase reporter measured after 24 hrs by dual luciferase reporter assay

[4] = target: Bone morphogenetic protein receptor type-1B (Homo sapiens) (UniProt O00238); assay: Inhibition of ALK6 (unknown origin) at 1 uM
Chain of Bone morphogenetic protein receptor type-1B (Homo sapiens) (O00238 whole entry): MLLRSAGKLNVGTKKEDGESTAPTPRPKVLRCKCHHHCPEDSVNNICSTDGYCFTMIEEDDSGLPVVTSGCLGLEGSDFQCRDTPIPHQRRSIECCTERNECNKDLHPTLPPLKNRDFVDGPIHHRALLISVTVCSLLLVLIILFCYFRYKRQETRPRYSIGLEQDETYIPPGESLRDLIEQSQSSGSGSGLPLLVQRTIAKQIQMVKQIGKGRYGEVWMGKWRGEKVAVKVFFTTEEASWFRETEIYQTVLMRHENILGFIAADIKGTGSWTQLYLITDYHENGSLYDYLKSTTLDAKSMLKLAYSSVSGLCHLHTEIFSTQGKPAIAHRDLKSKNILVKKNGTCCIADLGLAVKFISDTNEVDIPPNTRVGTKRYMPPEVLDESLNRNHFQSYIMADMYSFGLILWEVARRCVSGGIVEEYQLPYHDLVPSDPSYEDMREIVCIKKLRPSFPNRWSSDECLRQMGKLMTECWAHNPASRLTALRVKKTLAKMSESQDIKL

[5] = target: Bone morphogenetic protein receptor type-1A (Homo sapiens) (UniProt P36894); assay: Inhibition of ALK3 (unknown origin) at 1 uM
Chain of Bone morphogenetic protein receptor type-1A (Homo sapiens) (P36894 whole entry): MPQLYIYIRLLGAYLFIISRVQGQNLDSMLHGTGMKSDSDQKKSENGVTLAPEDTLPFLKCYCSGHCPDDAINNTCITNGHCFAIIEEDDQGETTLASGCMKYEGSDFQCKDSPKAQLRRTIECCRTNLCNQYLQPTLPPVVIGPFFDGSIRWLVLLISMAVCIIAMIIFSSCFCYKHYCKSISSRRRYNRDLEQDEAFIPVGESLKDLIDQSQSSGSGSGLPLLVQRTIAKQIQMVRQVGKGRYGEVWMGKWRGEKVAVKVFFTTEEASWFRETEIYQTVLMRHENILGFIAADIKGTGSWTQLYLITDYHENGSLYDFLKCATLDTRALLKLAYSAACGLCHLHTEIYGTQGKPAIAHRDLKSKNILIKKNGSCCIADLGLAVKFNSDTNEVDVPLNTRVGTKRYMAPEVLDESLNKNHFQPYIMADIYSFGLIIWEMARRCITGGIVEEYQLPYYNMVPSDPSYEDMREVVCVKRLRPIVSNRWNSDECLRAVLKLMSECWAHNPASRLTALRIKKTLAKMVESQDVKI

[6] = human, microsomes, 1 h, 1 µM
Description: Microsomal stability in human liver microsomes assessed as parent compound remaining at 1 uM and 37 degree C measured after 60 mins in presence of NADP+ by LC-QTOF/MS analysis

[7] = target: Activin receptor type-1-like (Homo sapiens) (UniProt P37023); assay: Inhibition of ALK1 (unknown origin) at 1 uM
Chain of Activin receptor type-1-like (Homo sapiens) (P37023 whole entry): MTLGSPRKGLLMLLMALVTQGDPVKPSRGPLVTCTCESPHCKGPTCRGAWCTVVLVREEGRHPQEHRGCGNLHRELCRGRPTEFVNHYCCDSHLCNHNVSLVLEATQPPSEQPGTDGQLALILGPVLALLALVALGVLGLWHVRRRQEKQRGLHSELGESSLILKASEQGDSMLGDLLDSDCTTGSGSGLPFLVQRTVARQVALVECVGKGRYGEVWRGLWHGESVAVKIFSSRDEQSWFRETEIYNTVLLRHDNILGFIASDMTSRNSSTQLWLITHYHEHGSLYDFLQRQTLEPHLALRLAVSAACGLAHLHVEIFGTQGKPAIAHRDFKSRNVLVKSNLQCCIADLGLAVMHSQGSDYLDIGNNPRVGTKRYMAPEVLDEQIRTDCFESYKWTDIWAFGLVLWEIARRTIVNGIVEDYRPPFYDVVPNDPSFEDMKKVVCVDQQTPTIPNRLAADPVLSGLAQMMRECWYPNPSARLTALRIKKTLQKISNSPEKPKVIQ

TGF-beta receptor type-1 [8] = target: T2, TGF-beta receptor type-1; format: single protein
Description: Inhibition of human ALK5 using casein as substrate in presence of 10 uM [gamma33P] ATP by radioactive assay

[9] = target: Mitogen-activated protein kinase kinase kinase kinase 4 (Homo sapiens) (UniProt O95819); assay: Inhibition of MAP4K4 (unknown origin) at 1 uM
Chain of Mitogen-activated protein kinase kinase kinase kinase 4 (Homo sapiens) (O95819 2-1239 limits assumed): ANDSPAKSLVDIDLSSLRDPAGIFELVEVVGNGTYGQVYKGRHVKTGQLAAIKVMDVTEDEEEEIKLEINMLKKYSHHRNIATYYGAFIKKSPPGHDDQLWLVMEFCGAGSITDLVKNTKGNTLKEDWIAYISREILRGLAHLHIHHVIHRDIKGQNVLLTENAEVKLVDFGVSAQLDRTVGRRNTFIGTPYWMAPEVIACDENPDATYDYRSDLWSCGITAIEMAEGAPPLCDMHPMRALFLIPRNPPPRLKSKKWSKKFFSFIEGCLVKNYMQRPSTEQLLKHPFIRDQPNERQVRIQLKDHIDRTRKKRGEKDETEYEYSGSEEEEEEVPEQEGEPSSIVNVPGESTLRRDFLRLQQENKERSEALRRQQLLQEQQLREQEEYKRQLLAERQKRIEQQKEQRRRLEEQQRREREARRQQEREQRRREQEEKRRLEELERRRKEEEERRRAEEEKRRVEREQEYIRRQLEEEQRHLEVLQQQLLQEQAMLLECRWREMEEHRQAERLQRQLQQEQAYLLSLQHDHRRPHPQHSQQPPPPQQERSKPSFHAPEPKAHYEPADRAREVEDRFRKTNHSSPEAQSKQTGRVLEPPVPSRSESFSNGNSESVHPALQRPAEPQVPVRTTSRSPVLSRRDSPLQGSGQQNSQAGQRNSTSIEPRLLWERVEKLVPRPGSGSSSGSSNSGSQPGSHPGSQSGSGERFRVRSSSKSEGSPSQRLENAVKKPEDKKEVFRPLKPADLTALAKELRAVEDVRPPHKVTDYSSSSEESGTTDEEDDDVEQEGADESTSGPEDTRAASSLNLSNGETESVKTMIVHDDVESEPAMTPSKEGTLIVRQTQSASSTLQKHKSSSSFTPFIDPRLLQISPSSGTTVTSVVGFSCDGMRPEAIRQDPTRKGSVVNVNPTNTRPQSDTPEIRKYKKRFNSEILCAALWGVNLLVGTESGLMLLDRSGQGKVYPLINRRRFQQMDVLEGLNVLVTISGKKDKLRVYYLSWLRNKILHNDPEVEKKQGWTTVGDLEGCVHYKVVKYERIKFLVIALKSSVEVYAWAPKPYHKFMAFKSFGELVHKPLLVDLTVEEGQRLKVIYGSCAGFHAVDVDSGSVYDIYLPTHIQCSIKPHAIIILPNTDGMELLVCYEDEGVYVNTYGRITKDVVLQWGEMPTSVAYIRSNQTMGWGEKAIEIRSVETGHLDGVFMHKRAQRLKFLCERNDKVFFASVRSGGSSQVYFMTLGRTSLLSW

[10] = mouse, microsomes, 1 h, 1 µM
Description: Microsomal stability in CD-1 mouse liver microsomes assessed as parent compound remaining at 1 uM and 37 degree C measured after 60 mins in presence of NADP+ by LC-QTOF/MS analysis

[11] = target: T3, Serine/threonine-protein kinase A-Raf (Homo sapiens) (UniProt P10398); assay: Inhibition of ARAF (unknown origin) at 1 uM
T3 sequence (whole entry): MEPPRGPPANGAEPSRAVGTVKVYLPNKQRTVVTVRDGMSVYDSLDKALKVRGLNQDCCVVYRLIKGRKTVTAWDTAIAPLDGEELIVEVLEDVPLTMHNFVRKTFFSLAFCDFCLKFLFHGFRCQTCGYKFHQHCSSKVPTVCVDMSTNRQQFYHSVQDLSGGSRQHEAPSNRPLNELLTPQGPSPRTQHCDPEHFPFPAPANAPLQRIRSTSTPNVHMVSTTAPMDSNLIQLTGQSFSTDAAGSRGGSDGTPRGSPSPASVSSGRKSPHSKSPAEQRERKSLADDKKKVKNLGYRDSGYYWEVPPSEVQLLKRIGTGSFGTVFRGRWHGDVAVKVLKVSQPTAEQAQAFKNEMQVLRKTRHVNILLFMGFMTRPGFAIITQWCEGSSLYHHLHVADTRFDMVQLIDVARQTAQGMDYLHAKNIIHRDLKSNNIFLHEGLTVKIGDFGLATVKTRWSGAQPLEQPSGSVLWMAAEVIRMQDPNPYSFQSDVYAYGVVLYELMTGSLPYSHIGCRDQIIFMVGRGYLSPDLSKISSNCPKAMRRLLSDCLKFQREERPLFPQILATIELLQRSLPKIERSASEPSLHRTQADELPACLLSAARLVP

Activin receptor type-1 [12] = target: T4, Activin receptor type-1 (Homo sapiens, UniProt Q04771)
T4 sequence (Q04771 whole entry): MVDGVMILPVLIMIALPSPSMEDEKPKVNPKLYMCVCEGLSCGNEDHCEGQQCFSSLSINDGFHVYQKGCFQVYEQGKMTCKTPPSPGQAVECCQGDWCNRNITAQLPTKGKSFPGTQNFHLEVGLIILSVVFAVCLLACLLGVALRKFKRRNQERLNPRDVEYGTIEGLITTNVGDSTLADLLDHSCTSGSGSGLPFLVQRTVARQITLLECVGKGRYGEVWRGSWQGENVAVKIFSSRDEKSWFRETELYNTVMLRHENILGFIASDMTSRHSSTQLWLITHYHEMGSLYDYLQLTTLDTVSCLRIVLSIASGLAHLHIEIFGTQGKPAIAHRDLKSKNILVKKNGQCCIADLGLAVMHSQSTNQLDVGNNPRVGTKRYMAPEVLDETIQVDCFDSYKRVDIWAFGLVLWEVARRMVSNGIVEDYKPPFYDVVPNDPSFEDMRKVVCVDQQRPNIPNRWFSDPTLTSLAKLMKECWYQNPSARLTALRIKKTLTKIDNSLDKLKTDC
Description: Inhibition of human ALK2 using casein as substrate in presence of 10 uM [gamma33P] ATP by radioactive assay

Activin receptor type-1 [13] = target: T4, Activin receptor type-1; assay: Inhibition of C-terminal nanoluciferase-fused ALK2 (unknown origin) expressed in HEK293 cells incubated for 2 hrs followed by NanoBRET NanoGlo Substrate addition by NanoBRET assay; format: cell-based
in vitro [14] = details: human, Caco-2
Description: Apparent permeability across apical to basolateral membrane in human Caco2 cells at 5 uM incubated for 120 mins in orbital shaker by LC-QTOF/MS analysis

in vitro [15] = details: human, Caco-2; remark: listed apart in the source
Description: Apparent permeability across basolateral to apical membrane in human Caco2 cells at 5 uM incubated for 120 mins in orbital shaker by LC-QTOF/MS analysis

[16] = target: Voltage-gated inwardly rectifying potassium channel KCNH2 (Homo sapiens, UniProt Q12809)
Description: Inhibition of human ERG expressed in HEK293 cells measured after 5 mins by whole cell patch clamp method

Activin receptor type-1 [17] = target: Activin receptor type-1 (Homo sapiens, UniProt Q04771, R258G); assay: Inhibition of ALK2 R258G mutant (unknown origin)
Chain of Activin receptor type-1 (Homo sapiens, UniProt Q04771, R258G) (Q04771 21-509 R258G limits assumed): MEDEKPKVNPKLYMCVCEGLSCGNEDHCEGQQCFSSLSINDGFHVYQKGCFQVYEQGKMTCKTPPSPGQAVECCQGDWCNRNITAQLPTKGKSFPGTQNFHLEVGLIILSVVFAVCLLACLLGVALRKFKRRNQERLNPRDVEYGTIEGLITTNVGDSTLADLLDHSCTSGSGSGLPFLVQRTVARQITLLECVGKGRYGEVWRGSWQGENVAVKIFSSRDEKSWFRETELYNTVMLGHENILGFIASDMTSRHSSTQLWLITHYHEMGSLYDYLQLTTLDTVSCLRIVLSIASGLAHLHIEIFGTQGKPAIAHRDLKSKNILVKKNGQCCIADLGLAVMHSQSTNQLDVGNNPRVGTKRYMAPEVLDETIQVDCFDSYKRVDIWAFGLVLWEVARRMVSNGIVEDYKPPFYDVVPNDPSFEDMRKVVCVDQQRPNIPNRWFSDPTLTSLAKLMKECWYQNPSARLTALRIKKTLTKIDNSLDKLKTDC

Activin receptor type-1 [18] = target: Activin receptor type-1 (Homo sapiens, UniProt Q04771, R206H); assay: Inhibition of human ALK2 R206H mutant using casein as substrate in presence of 10 uM [gamma33P] ATP by radioactive assay
Chain of Activin receptor type-1 (Homo sapiens, UniProt Q04771, R206H) (Q04771 21-509 R206H limits assumed): as the sequence (Q04771 21-509 R258G limits assumed) above, with R186H, G238R counted along it

Activin receptor type-1 [19] = target: Activin receptor type-1 (Homo sapiens, UniProt Q04771, G328V); assay: Inhibition of ALK2 G328V mutant (unknown origin)
Chain of Activin receptor type-1 (Homo sapiens, UniProt Q04771, G328V) (Q04771 21-509 G328V limits assumed): as the sequence (Q04771 21-509 R258G limits assumed) above, with G238R, G308V counted along it

[20] = mouse, in vivo, po, 10 mg/kg, 24 h
[21] = mouse, in vivo, po, 10 mg/kg, 24 h; remark: listed apart in the source
Description: Half life in CB17 SCID mouse at 10 mg/kg, po measured up to 24 hrs by LC-MS/MS analysis

[22] = mouse, in vivo, po, 10 mg/kg, 24 h; remark: listed apart in the source

Chain of Misshapen-like kinase 1 (Homo sapiens) (Q8N4C8 whole entry, looked up): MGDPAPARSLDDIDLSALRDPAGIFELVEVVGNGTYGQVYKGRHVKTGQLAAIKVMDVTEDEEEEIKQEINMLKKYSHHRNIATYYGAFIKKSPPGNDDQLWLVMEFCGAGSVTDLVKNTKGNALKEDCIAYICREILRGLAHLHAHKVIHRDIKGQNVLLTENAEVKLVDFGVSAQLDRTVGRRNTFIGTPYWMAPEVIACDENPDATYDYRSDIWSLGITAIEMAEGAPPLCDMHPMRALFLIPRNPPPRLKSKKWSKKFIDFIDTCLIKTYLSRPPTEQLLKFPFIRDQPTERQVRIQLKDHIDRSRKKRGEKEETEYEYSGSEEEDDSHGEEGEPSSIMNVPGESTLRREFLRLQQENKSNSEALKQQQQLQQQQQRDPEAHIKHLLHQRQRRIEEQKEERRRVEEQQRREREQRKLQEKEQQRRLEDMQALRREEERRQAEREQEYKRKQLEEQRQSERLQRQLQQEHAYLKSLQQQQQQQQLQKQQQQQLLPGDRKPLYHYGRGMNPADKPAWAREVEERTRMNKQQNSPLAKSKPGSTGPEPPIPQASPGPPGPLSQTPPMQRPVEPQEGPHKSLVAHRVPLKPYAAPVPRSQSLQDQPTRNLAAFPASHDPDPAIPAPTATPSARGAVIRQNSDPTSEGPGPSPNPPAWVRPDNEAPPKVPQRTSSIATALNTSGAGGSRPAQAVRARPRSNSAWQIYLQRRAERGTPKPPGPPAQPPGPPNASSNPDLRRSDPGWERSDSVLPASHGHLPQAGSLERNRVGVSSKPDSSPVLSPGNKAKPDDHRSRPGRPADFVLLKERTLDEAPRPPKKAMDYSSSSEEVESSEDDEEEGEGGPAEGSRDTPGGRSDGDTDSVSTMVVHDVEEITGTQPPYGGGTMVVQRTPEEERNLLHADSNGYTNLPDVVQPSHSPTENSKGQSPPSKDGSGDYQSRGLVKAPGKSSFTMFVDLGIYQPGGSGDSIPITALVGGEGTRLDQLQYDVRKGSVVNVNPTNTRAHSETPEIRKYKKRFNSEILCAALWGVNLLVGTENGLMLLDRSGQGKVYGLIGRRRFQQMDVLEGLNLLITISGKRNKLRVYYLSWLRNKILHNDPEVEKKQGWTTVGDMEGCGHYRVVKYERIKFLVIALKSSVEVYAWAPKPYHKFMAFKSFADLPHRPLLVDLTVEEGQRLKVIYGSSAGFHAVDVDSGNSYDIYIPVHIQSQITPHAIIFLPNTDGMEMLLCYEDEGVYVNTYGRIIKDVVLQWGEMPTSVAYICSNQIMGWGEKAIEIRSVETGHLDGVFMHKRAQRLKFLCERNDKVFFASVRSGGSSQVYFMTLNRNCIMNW

Row | Structure (SMILES) | IC50 (TGF-beta receptor type-1 [3]) | IC50 (TGF-beta receptor type-1 [8]) | IC50 (Activin receptor type-1 [12]) | IC50 (Activin receptor type-1 [13]) | further results
1 | COc1cc(-c2cncc(-c3ccc(N4C[C@@H](C)N(C)[C@@H](C)C4)cc3)c2C)cc(F)c1C(N)=O | > 5 µM | 2.91 µM | 0.01 µM | 0.1 µM | inhibition [1]: Active; inhibition [2]: Active; inhibition [4]: Active; inhibition [5]: Active; Stability [6]: Stable; inhibition [7]: Active; inhibition [9]: Active; Stability [10]: Stable; inhibition [11]: Active; Papp A→B at 2 h, 5 µM (in vitro [14]): 4.3 ×10⁻⁶ cm/s; Papp B→A at 2 h, 5 µM (in vitro [15]): 14.5 ×10⁻⁶ cm/s; IC50 [16]: 19 µM
2 | COc1c(-c2cncc(-c3ccc(N4CCNCC4)cc3)c2C)csc1C(N)=O | > 5 µM | > 5 µM | 0.712 µM | 2.81 µM | 
3 | COc1cc(C(N)=O)cc(-c2cncc(-c3ccc(N4CCNCC4)cc3)c2C)c1 | > 5 µM | > 5 µM | 0.102 µM | 0.588 µM | 
4 | Cc1c(-c2ccc(C(N)=O)cc2)cncc1-c1ccc(N2CCNCC2)cc1 | > 5 µM | > 5 µM | 0.477 µM | 2.77 µM | 
5 | Cc1c(-c2ccc(N3CCNCC3)cc2)cncc1-c1ccc2c(c1)CNC2=O | 4.81 µM | > 5 µM |  | 2.34 µM | IC50 (Activin receptor type-1 [17]): 0.363 µM; IC50 (Activin receptor type-1 [18]): 0.226 µM; IC50 (Activin receptor type-1 [19]): 0.171 µM
6 | COc1cc(-c2cncc(-c3ccc(N4CCNCC4)cc3)c2C)cc(OC)c1C(N)=O |  |  |  | 0.178 µM | 
7 | COc1cc(-c2cncc(-c3ccc(N4CCN(C(C)C)CC4)cc3)c2C)cc(OC)c1C(N)=O | 0.276 µM | 0.066 µM | 0.005 µM | 0.018 µM | 
8 | COc1cc(-c2cncc(-c3ccc(N4CCNCC4)cc3)c2C)cc(Cl)c1C(N)=O | > 5 µM | 2.08 µM |  | 0.093 µM | IC50 (Activin receptor type-1 [17]): 0.004 µM; IC50 (Activin receptor type-1 [18]): 0.005 µM; IC50 (Activin receptor type-1 [19]): < 0.002 µM
9 | COc1ccc(-c2cncc(-c3ccc(N4CCNCC4)cc3)c2C)cc1C(N)=O | > 5 µM | > 5 µM | > 1 µM | 0.694 µM | 
10 | COc1cc(-c2cncc(-c3ccc(N4CCN(C(C)C)CC4)cc3)c2C)cc(F)c1C(N)=O |  |  |  |  | inhibition [1]: Active; inhibition [2]: Active; inhibition [4]: Active; inhibition [5]: Active; inhibition [7]: Active; inhibition [9]: Active; inhibition [11]: Active
11 | COCc1cc(-c2cncc(-c3ccc(N4CCNCC4)cc3)c2C)ccc1C(N)=O | > 5 µM | > 5 µM | 0.687 µM | 3.84 µM | 
12 | COc1cc(-c2cncc(-c3ccc(N4CCNCC4)cc3)c2C)sc1C(N)=O | > 5 µM | > 5 µM | 0.751 µM | 3.37 µM | 
13 | COc1cc(-c2cncc(-c3ccc(N4CCN(C)CC4)cc3)c2C)cc(OC)c1C(N)=O | 0.249 µM | 0.075 µM | < 0.003 µM | 0.019 µM | IC50 (Activin receptor type-1 [17]): < 0.002 µM; IC50 (Activin receptor type-1 [18]): 0.004 µM; IC50 (Activin receptor type-1 [19]): < 0.002 µM
14 | COc1cc(-c2cncc(-c3ccc(N4C[C@@H](C)N(C)[C@@H](C)C4)cc3)c2C)cc(OC)c1C(N)=O | 0.283 µM | 0.052 µM | 0.003 µM |  | 
15 | COc1cc(-c2cncc(-c3ccc(N4CCNCC4)cc3)c2C)cc(F)c1C(N)=O |  |  |  | 0.081 µM | Stability [6]: > 85%; IC50 (Activin receptor type-1 [17]): 0.007 µM; Stability [10]: > 85%; Cmax [20]: 97 ng/mL; IC50 (Activin receptor type-1 [18]): 0.008 µM; IC50 (Activin receptor type-1 [19]): 0.004 µM; Papp A→B at 2 h, 5 µM (in vitro [14]): 0.3 ×10⁻⁶ cm/s; Papp B→A at 2 h, 5 µM (in vitro [15]): 10.7 ×10⁻⁶ cm/s; t1/2 [21]: 1.31 h; AUC [22]: 296 ng·h/mL
16 | CNC(=O)c1ccc(-c2cncc(-c3ccc(N4CCNCC4)cc3)c2C)cc1OC | > 5 µM | > 5 µM | > 1 µM | > 5 µM | 
17 | COc1cc(-c2cncc(-c3ccc(N4CCNCC4)cc3)c2C)ccc1C(N)=O |  |  |  | 0.055 µM | IC50 (Activin receptor type-1 [17]): 0.009 µM; IC50 (Activin receptor type-1 [18]): 0.009 µM; IC50 (Activin receptor type-1 [19]): 0.005 µM
18 | Cc1c(-c2ccc(N3CCNCC3)cc2)cncc1-c1ccc(C(N)=O)c(F)c1 | > 5 µM | > 5 µM | 0.263 µM | 1.01 µM | 
19 | COc1c(C(N)=O)csc1-c1cncc(-c2ccc(N3CCNCC3)cc2)c1C | > 5 µM | > 5 µM | > 1 µM | > 5 µM | 
20 | COc1cc(-c2cncc(-c3ccc(N4CCNCC4)cc3)c2C)ccc1C(=O)N(C)C | > 5 µM | > 5 µM | > 1 µM | > 5 µM | 
